Measurements published in paper PMC12211128, “Safety, tolerability, pharmacokinetic and pharmacodynamic effects of the muscarinic M1 positive allosteric modulator VU0467319 for Alzheimer’s disease: a single ascending-dose study in healthy participants” (Alzheimer's Research & Therapy, 2025).

Tested on: healthy participants
Assay: Critical flicker fusion task (CFF)
Assay type: in vivo, human
Conditions: for CFF Median Ascending score / CFF Median Descending score: mean (SD)
Description: (§1) The critical flicker fusion task (CFF; [30]) was used to test perceptual vigilance using the frequency of a flickering LED (between 12 and 50 Hz). The outcome variable for CFF is frequency (Hz) for ascending and descending trials. In the ascending trials, the participants pressed a button indicating when the light flickered to a speed where they appear to be continuously on or fused. In the descending trials, the participants pressed a button when the frequency of apparently fused lights is decreased such that lights begin to appear to be flashing.
Cognitive data: In this exploratory analysis, each outcome variable of the cognitive data was examined in a mixed model analysis of variance with one between-subjects factor of VU319 dose (0, 60, 120, 240, 400, 600 mg) and a within-subjects factor of testing session (pre-dose vs. post-dost administration). Post-hoc analysis compared each of the VU319 dose cohorts against the placebo group. Because the participants were healthy adults with normal cognitive function, we considered effects between no reductions in function to small improvement (d = 0.0–0.20) to be a positive result. For the food effect study, only the participants who received VU319 were examined due to the disproportionately small placebo group (n = 2). A within-subjects ANOVA including food condition (fasted/fed) and testing session (pre-dose vs. post-dose administration) was performed on each outcome variable.
as §1, with “(Kupke & Lewis, 1989))” for “[30])”, “12-50” for “12 and 50”

[1] = Food effect study 120 mg, Fasting, Post-Drug
[2] = Food effect study 120 mg, Fasting, Pre-Drug
[3] = Food effect study 120 mg, Fed, Post-Drug
[4] = Food effect study 120 mg, Fed, Pre-Drug

Structure (SMILES): Cn1cc2c(-c3cc(F)c(CN4Cc5ncccc5C4=O)c(F)c3)cccc2n1 [VU319]
- CFF Median Ascending score [1]: 39.03 (5.2) Hz
- CFF Median Descending score [1]: 38.59 (4.57) Hz
- CFF Median Ascending score [2]: 34.62 (9.06) Hz
- CFF Median Descending score [2]: 38.49 (5.19) Hz
- CFF Median Ascending score [3]: 39.29 (4.38) Hz
- CFF Median Descending score [3]: 39.36 (4.08) Hz
- CFF Median Ascending score [4]: 39.09 (5.81) Hz
- CFF Median Descending score [4]: 39.25 (3.25) Hz
- CFF Median Ascending score (SAD study, 60 mg, Post-Drug): 37.67 (3.1) Hz
- CFF Median Descending score (SAD study, 60 mg, Post-Drug): 38.32 (7.51) Hz
- CFF Median Ascending score (SAD study, 60 mg, Pre-Drug): 36.32 (4.6) Hz
- CFF Median Descending score (SAD study, 60 mg, Pre-Drug): 37 (5.35) Hz
- CFF Median Ascending score (SAD study, 120 mg, Post-Drug): 36.53 (3.87) Hz
- CFF Median Descending score (SAD study, 120 mg, Post-Drug): 38.68 (3.31) Hz
- CFF Median Ascending score (SAD study, 120 mg, Pre-Drug): 37.33 (2.38) Hz
- CFF Median Descending score (SAD study, 120 mg, Pre-Drug): 40.23 (4.95) Hz
- CFF Median Ascending score (SAD study, 240 mg, Post-Drug): 38.12 (4.1) Hz
- CFF Median Descending score (SAD study, 240 mg, Post-Drug): 37.25 (6.89) Hz
- CFF Median Ascending score (SAD study, 240 mg, Pre-Drug): 32.72 (9.97) Hz
- CFF Median Descending score (SAD study, 240 mg, Pre-Drug): 37.1 (6.52) Hz
- CFF Median Ascending score (SAD study, 400 mg, Post-Drug): 39.98 (3.97) Hz
- CFF Median Descending score (SAD study, 400 mg, Post-Drug): 40.05 (3.01) Hz
- CFF Median Ascending score (SAD study, 400 mg, Pre-Drug): 37.92 (3.7) Hz
- CFF Median Descending score (SAD study, 400 mg, Pre-Drug): 39.67 (2.1) Hz
- CFF Median Ascending score (SAD study, 600 mg, Post-Drug): 36.58 (3.14) Hz
- CFF Median Descending score (SAD study, 600 mg, Post-Drug): 39.73 (5.18) Hz
- CFF Median Ascending score (SAD study, 600 mg, Pre-Drug): 35.45 (3.61) Hz
- CFF Median Descending score (SAD study, 600 mg, Pre-Drug): 39.22 (5.92) Hz
- CFF ascending trial, effect of dose (SAD study, both p > 0.3): no effect of dose, nor a dose by time interaction
- CFF ascending condition, post- vs pre-dose, effect size d (food effect study, 120 mg, p = 0.07): 1.37
